The assay concerns the target T1, human DP2 receptor (Homo sapiens, UniProt Q9Y5Y4).
T1 construct: expressed in transfected cells; membrane preparation
T1 sequence (Q9Y5Y4 1-395): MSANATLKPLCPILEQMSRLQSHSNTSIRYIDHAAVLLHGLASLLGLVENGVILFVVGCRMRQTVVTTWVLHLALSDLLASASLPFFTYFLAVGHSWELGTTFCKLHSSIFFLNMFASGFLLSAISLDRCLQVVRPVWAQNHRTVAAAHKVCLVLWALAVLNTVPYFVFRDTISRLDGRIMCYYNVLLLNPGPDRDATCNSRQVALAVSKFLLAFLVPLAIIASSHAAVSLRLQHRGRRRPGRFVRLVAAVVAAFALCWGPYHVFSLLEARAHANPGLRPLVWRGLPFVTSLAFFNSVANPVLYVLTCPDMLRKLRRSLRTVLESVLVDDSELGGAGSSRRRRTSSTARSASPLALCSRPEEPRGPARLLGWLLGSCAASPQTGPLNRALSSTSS
The assay can be described thus: DP2/CRTH2 radioligand binding assay using [3H]PGD2. Conditions: hDP2 (CRTH2) binding assay; membranes of HEK293 cells expressing recombinant human DP2, 1 nM [3H]PGD2. How it is done: The ability of a compound to bind to the human DP2 receptor is assessed via a radioligand binding assay using [^3H]PGD2. HEK293 cells stably expressing recombinant human DP2 are resuspended in 10 mM Hepes, 7.4 containing 1 mM DTT, lysed and centrifuged at 75,000×g to pellet the membranes. The membranes are resuspended in 10 mM Hepes, 7.4 containing 1 mM DTT and 10% glycerol to approximately 5 mg protein/ml. Membranes (2-10 μg protein/well) are incubated in 96-well plates with 1 nM [^3H]PGD2 and test compound in Assay Buffer (50 mM Hepes, 10 mM MnCl2, 1 mM EDTA, plus or minus 0.2% human serum albumin, pH 7.4) for 60 minutes at room temperature. The reactions are terminated by rapid filtration through Whatman GF/C glass fibre filter plates. The filter plates were pre-soaked in 0.33% polythylenimine for 30 minutes at room temperature then washed in Wash Buffer (50 mM Hepes, 0.5 M NaCl pH 7.4) prior to harvesting. After harvesting, the filter plates are washed 3 times with 1 ml cold Wash Buffer then dried. Scintillant is then added to the plates and the radioactivity retained on the filters is determined on a Packard TopCount (Perkin Elmer). Specific binding is determined as total radioactive binding minus non-specific binding in the presence of 10 μM PGD2. IC50s were determined using GraphPad prism analysis of drug titration curves.
With `CCN(Cc1cc(C(F)(F)F)ccc1-c1cc(C(F)(F)F)cc(CC(=O)O)n1)C(=O)C1CCC1` [Compound 1-41, (6-{2-[(N-Cyclobutanecarbonyl-N-ethyl-amino)-methyl]-4-trifluoromethyl-phenyl}-4-trifluoromethyl-pyridin-2-yl)-acetic acid], the IC50 was below 0.3 µM. On to `CCN(Cc1cc(C(F)(F)F)ccc1-c1cc(CC(=O)O)ccn1)C(=O)C1CC1` [Compound 1-35, (2-{2-[(N-Cyclopropanecarbonyl-N-ethyl-amino)-methyl]-4-trifluoromethyl-phenyl}-pyridin-4-yl)-acetic acid], for which the IC50 was above 1 µM. To `O=C(O)Cc1cncc(-c2ccc(C(F)(F)F)cc2CN(Cc2ccccn2)C(=O)C2CC2)c1` [Compound 1-52, (5-{2-[(N-Cyclopropanecarbonyl-N-pyridin-2-ylmethyl-amino)-methyl]-4-trifluoromethyl-phenyl}-pyridin-3-yl)-acetic acid] belongs below 0.3 µM; to `CC(=O)NCc1ccc(-c2cncc(CC(=O)O)c2)c(CN(Cc2ccccc2)C(=O)C2CC2)c1` [Compound 1-9, (5-{4-(Acetylamino-methyl)-2-[(N-benzyl-N-cyclopropanecarbonyl-amino)-methyl]-phenyl}-pyridin-3-yl)-acetic acid], above 1 µM; to `Cc1cnc(CN(Cc2cc(C(F)(F)F)ccc2-c2cncc(CC(=O)O)c2)C(=O)C2CC2)cn1` [Compound 1-58, [5-(2-{[N-Cyclopropanecarbonyl-N-(5-methyl-pyrazin-2-ylmethyl)-amino]-methyl}-4-trifluoromethyl-phenyl)-pyridin-3-yl]-acetic acid], below 0.3 µM. The figure for `CCN(Cc1cc(C(F)(F)F)ccc1-c1cccc(CC(=O)O)n1)C(=O)NCc1ccccc1` [Compound 1-39, {6-[2-(3-Benzyl-1-ethyl-ureidomethyl)-4-trifluoromethyl-phenyl]-pyridin-2-yl}-acetic acid] is above 1 µM; for `CCN(Cc1cc(C(F)(F)F)ccc1-c1cccc(CC(=O)O)n1)C(=O)C1CC1` [Compound 1-40, (6-{2-[(N-Cyclopropanecarbonyl-N-ethyl-amino)-methyl]-4-trifluoromethyl-phenyl}-pyridin-2-yl)-acetic acid] it is above 1 µM; for `CS(=O)(=O)NCc1ccc(-c2cncc(CC(=O)O)c2)c(CN(Cc2ccccc2)C(=O)C2CC2)c1` [Compound 1-10, {5-[2-[(N-Benzyl-N-cyclopropanecarbonyl-amino)-methyl]-4-(methanesulfonylamino-methyl)-phenyl]-pyridin-3-yl}-acetic acid] it is above 1 µM. The figure for `O=C(O)Cc1cncc(-c2ccc(C(F)(F)F)cc2CN(CCc2ccncc2)C(=O)C2CC2)c1` [Compound 1-66, [5-(2-{[N-Cyclopropanecarbonyl-N-(2-pyridin-4-yl-ethyl)-amino]-methyl}-4-trifluoromethyl-phenyl)-pyridin-3-yl]-acetic acid] is above 1 µM; for `O=C(O)Cc1cncc(-c2ccc(C(F)(F)F)cc2CN(C(=O)C2CC2)C2Cc3ccccc3C2)c1` [Compound 1-24, (5-{2-[(N-Cyclopropanecarbonyl-N-indan-2-yl-amino)-methyl]-4-trifluoromethyl-phenyl}-pyridin-3-yl)-acetic acid] it is below 0.3 µM. `C[C@H]1[C@@H](c2ccccc2)OC(=O)N1Cc1cc(C(F)(F)F)ccc1-c1cncc(CC(=O)O)c1` [Compound 2-1, {5-[2-((4S,5R)-4-Methyl-2-oxo-5-phenyl-oxazolidin-3-ylmethyl)-4-trifluoromethyl-phenyl]-pyridin-3-yl}-acetic acid]: the IC50 was below 0.3 µM.

`CCN(Cc1cc(C(F)(F)F)ccc1-c1cc(CC(=O)O)cnc1-c1ccccc1)C(=O)C1CC1` [Compound 1-76, (5-{2-[(N-Cyclopropanecarbonyl-N-ethyl-amino)-methyl]-4-trifluoromethyl-phenyl}-6-phenyl-pyridin-3-yl)-acetic acid]: the IC50 is above 1 µM. To `CC(=O)N(Cc1ccc(C(F)(F)F)nc1)Cc1cc(C(F)(F)F)ccc1-c1cncc(CC(=O)O)c1` [Compound 1-62, [5-(2-{[N-Acetyl-N-(6-trifluoromethyl-pyridin-3-ylmethyl)-amino]-methyl}-4-trifluoromethyl-phenyl)-pyridin-3-yl]-acetic acid] belongs below 0.3 µM; to `CCN(Cc1cc(C(F)(F)F)ccc1-c1cc(CC(=O)O)ccn1)C(=O)c1ccccc1` [Compound 1-37, (2-{2-[(N-Benzoyl-N-ethyl-amino)-methyl]-4-trifluoromethyl-phenyl}-pyridin-4-yl)-acetic acid], above 1 µM.

For `CCN(Cc1cc(C(F)(F)F)ccc1-c1cc(CC(=O)O)ccn1)C(=O)NCc1ccccc1` [Compound 1-34, {2-[2-(3-Benzyl-1-ethyl-ureidomethyl)-4-trifluoromethyl-phenyl]-pyridin-4-yl}-acetic acid], the IC50 is above 1 µM. To `CCN(Cc1cc(F)ccc1-c1cncc(C(C)C(=O)O)c1)C(=O)C1CC1` (stereo not shown) [Compound 1-13, 2-(5-[2-[(N-Cyclopropanecarbonyl-N-ethyl-amino)-methyl]-4-fluoro-phenyl]-pyridin-3-yl)-propionic acid] belongs above 1 µM. To `CCN(Cc1cc(C(F)(F)F)ccc1-c1cnn(CC(=O)O)c1)C(=O)C1CC1` [Compound 3-1, (4-{2-[(N-Cyclopropanecarbonyl-N-ethyl-amino)-methyl]-4-trifluoromethyl-phenyl}-pyrazol-1-yl)-acetic acid] belongs below 0.3 µM; to `CCN(Cc1cc(C(F)(F)F)ccc1-c1c(C)nn(CC(=O)O)c1C)C(=O)C1CC1` [Compound 3-2, (4-{2-[(N-Cyclopropanecarbonyl-N-ethyl-amino)-methyl]-4-trifluoromethyl-phenyl}-3,5-dimethyl-pyrazol-1-yl)-acetic acid], above 1 µM; to `CCN(Cc1cc(C(F)(F)F)ccc1-c1cc(CC(=O)O)cnc1OCc1ccccc1)C(=O)C1CC1` [Compound 1-68, (6-Benzyloxy-5-{2-[(N-cyclopropanecarbonyl-N-ethyl-amino)-methyl]-4-trifluoromethyl-phenyl}-pyridin-3-yl)-acetic acid], below 0.3 µM. The figure for `O=C(O)Cc1cncc(-c2ccc(C(F)(F)F)cc2CN(Cc2ccc(C(F)(F)F)nc2)C(=O)C2CC2)c1` [Compound 1-59, [5-(2-{[N-Cyclopropanecarbonyl-N-(6-trifluoromethyl-pyridin-3-ylmethyl)-amino]-methyl}-4-trifluoromethyl-phenyl)-pyridin-3-yl]-acetic acid] is below 0.3 µM; for `CCN(Cc1cc(C(F)(F)F)ccc1-c1cc(C(F)(F)F)cc(CC(=O)O)n1)C(=O)NCc1ccccc1` [Compound 1-42, {6-[2-(3-Benzyl-1-ethyl-ureidomethyl)-4-trifluoromethyl-phenyl]-4-trifluoromethyl-pyridin-2-yl}-acetic acid] it is below 0.3 µM. With `O=C(O)Cc1cncc(-c2ccc(C(F)(F)F)cc2CN(CCc2cccnc2)C(=O)C2CC2)c1` [Compound 1-65, [5-(2-{[N-Cyclopropanecarbonyl-N-(2-pyridin-3-yl-ethyl)-amino]-methyl}-4-trifluoromethyl-phenyl)-pyridin-3-yl]-acetic acid], the concentration for half-maximal inhibition (IC50) lay within 0.3 to 1 µM.

Source of the values: patent US20110312974A1, “HETEROARYL ANTAGONISTS OF PROSTAGLANDIN D2 RECEPTORS” (AMIRA PHARMACEUTICALS, INC., priority 2008, published 2011).
